How the values were obtained:
[1] = target: Recombinant human JAK1 catalytic domain (Homo sapiens (Human), UniProt P23458); assay: JAK1 inhibition assay; type: biochemical; conditions: semi-quantitative score
Method: (§1) Plates were washed 6 times with 300 μL per well of a 75 mM phosphoric acid solution and the bottom of the plates was sealed. 40 μL/well of Microscint-20 was added, the top of the plates was sealed and readout was performed using the Topcount (Perkin Elmer). Kinase activity was calculated by subtracting counts per minute (cpm) obtained in the presence of a positive control inhibitor (10 μM staurosporine) from cpm obtained in the presence of vehicle. The ability of a test compound to inhibit this activity was determined as: Percentage inhibition=((cpm determined for sample with test compound present−cpm determined for sample with positive control inhibitor) divided by (cpm determined in the presence of vehicle−cpm determined for sample with positive control inhibitor))*100%.
Dose dilution series were prepared for the compounds enabling the testing of dose-response effects in the JAK1 assay and the calculation of the IC50 for each compound.

[2] = target: Recombinant human JAK2 catalytic domain (Homo sapiens (Human), UniProt O60674); assay: JAK2 inhibition assay; type: biochemical; conditions: semi-quantitative score
Sequence of Recombinant human JAK2 catalytic domain (O60674 808-1132): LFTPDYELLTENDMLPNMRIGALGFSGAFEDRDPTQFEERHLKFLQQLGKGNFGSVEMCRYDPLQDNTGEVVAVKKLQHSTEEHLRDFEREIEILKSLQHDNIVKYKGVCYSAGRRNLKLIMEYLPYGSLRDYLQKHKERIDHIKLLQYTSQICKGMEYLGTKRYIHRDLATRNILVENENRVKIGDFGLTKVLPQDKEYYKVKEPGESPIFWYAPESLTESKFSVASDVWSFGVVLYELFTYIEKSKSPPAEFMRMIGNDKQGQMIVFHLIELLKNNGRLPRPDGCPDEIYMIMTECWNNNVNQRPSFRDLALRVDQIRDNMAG
Method: as §1, with “After 90 min at 30° C., reactions were stopped by adding of 25 μL/well of 150 mM phosphoric acid. […] Plates” for “Plates”
Dose dilution series were prepared for the compounds enabling the testing of dose-response effects in the JAK2 assay and the calculation of the IC50 for each compound.

Sequence of Recombinant human JAK1 catalytic domain (P23458 850-1154): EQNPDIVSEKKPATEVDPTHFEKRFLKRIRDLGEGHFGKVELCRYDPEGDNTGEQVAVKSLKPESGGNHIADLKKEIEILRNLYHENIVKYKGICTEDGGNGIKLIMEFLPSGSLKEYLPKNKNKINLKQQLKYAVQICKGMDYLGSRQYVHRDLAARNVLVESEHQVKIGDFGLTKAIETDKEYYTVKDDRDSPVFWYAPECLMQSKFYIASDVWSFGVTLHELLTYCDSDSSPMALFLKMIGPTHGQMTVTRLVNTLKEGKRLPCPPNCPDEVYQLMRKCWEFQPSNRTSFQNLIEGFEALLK

IC50 [1] | IC50 [2] | SMILES
101 to 500 nM | 501 to 1000 nM | O=C(Nc1nc2cccc(-c3ccc(CN4CCC(CO)CC4)cc3)n2n1)C1CC1 [Compound 250, Cyclopropanecarboxylic acid {5-[4-(4-hydroxymethyl-piperidin-1-ylmethyl)-phenyl]-[1,2,4]triazolo[1,5-a]pyridin-2-yl}-amide]
101 to 500 nM | 101 to 500 nM | O=C(Nc1nc2cccc(-c3ccc(CC(=O)N4CCC4)cc3)n2n1)C1CC1 [Compound 318, Cyclopropanecarboxylic acid {5-[4-(2-azetidin-1-yl-2-oxo-ethyl)-phenyl]-[1,2,4]triazolo[1,5-a]pyridin-2-yl}-amide]
101 to 500 nM | 101 to 500 nM | O=C1CN(Cc2ccc(-c3cccc4nc(NC(=O)C5CC5)nn34)cc2)CCN1 [Compound 311, Cyclopropanecarboxylic acid {5-[4-(3-oxo-piperazin-1-ylmethyl)-phenyl]-[1,2,4]triazolo[1,5-a]pyridin-2-yl}-amide]
– | 101 to 500 nM | Cc1ccc(NCc2ccc(-c3cccc4nc(NC(=O)C5CC5)nn34)cc2)c(F)n1 [Compound 256, Cyclopropanecarboxylic acid (5-{4-[(2-fluoro-6-methyl-pyridin-3-ylamino)-methyl]-phenyl}-[1,2,4]triazolo[1,5-a]pyridin-2-yl)-amide]
101 to 500 nM | > 1000 nM | O=C(Nc1nc2cccc(-c3ccc(CN4CC[C@@H](O)C4)cc3)n2n1)C1CC1 [Compound 307, Cyclopropanecarboxylic acid {5-[4-((R)-3-hydroxy-pyrrolidin-1-ylmethyl)-phenyl]-[1,2,4]triazolo[1,5-a]pyridin-2-yl}-amide]
101 to 500 nM | 101 to 500 nM | C[C@@H]1CN(Cc2ccc(-c3cccc4nc(NC(=O)C5CC5)nn34)cc2)C[C@H](C)O1 [Compound 214, Cyclopropanecarboxylic acid {5-[4-((2R,6S)-2,6-dimethyl-morpholin-4-ylmethyl)-phenyl]-[1,2,4]triazolo[1,5-a]pyridin-2-yl}-amide]
101 to 500 nM | 501 to 1000 nM | O=C(Nc1nc2cccc(-c3ccc(C(=O)N4CCC(O)(c5ccccc5)CC4)cc3)n2n1)C1CC1 [Compound 286, Cyclopropanecarboxylic acid {5-[4-(4-hydroxy-4-phenyl-piperidine-1-carbonyl)-phenyl]-[1,2,4]triazolo[1,5-a]pyridin-2-yl}-amide]
101 to 500 nM | > 1000 nM | CCN(CC)C1CCN(C(=O)c2ccc(-c3cccc4nc(NC(=O)C5CC5)nn34)cc2)C1 (stereo not shown) [Compound 285, Cyclopropanecarboxylic acid {5-[4-(3-diethylamino-pyrrolidine-1-carbonyl)-phenyl]-[1,2,4]triazolo[1,5-a]pyridin-2-yl}-amide]
101 to 500 nM | 501 to 1000 nM | O=C(Nc1nc2cccc(-c3ccc(C(=O)N4C[C@@H]5C[C@H]4CO5)cc3)n2n1)C1CC1 [Compound 217, Cyclopropanecarboxylic acid {5-[4-((1S,4S)-2-oxa-5-aza-bicyclo[2.2.1]heptane-5-carbonyl)-phenyl]-[1,2,4]triazolo[1,5-a]pyridin-2-yl}-amide]
– | 101 to 500 nM | CN(C)C1CCN(Cc2ccc(-c3cccc4nc(NC(=O)C5CC5)nn34)cc2)C1 (stereo not shown) [Compound 263]
101 to 500 nM | 501 to 1000 nM | CN1CCN(c2ccc(NC(=O)c3ccc(-c4cccc5nc(NC(=O)C6CC6)nn45)cc3)cn2)CC1 [Compound 205, 4-[2-(Cyclopropanecarbonyl-amino)-[1,2,4]triazolo[1,5-a]pyridin-5-yl]-N-[6-(4-methyl-piperazin-1-yl)-pyridin-3-yl]-benzamide]
– | 501 to 1000 nM | CCN1C[C@H]2C[C@@H]1CN2Cc1ccc(-c2cccc3nc(NC(=O)C4CC4)nn23)cc1 [Compound 253, Cyclopropanecarboxylic acid {5-[4-((1R,4R)-5-ethyl-2,5-diaza-bicyclo[2.2.1]hept-2-ylmethyl)-phenyl]-[1,2,4]triazolo[1,5-a]pyridin-2-yl}-amide]
– | 501 to 1000 nM | O=C(Nc1nc2cccc(-c3ccc(CN4CCOCC4=O)cc3)n2n1)C1CC1 [Compound 254, Cyclopropanecarboxylic Acid {5-[4-(3-oxo-morpholin-4-ylmethyl)-phenyl]-[1,2,4]triazolo[1,5-a]pyridin-2-yl}-amide]
101 to 500 nM | 101 to 500 nM | O=C(Nc1nc2cccc(-c3ccc(CN4CC(F)(F)C4)cc3)n2n1)C1CC1 [Compound 315, Cyclopropanecarboxylic acid {5-[4-(3,3-difluoro-azetidin-1-ylmethyl)-phenyl]-[1,2,4]triazolo[1,5-a]pyridin-2-yl}-amide]
101 to 500 nM | 101 to 500 nM | CC1CC(C)CN(C(=O)Cc2ccc(-c3cccc4nc(NC(=O)C5CC5)nn34)cc2)C1 (stereo not shown) [Compound 320, Cyclopropanecarboxylic acid (5-{4-[2-(3,5-dimethyl-piperidin-1-yl)-2-oxo-ethyl]-phenyl}-[1,2,4]triazolo[1,5-a]pyridin-2-yl)-amide]
– | 101 to 500 nM | NC(=O)c1cccc(OCc2ccc(-c3cccc4nc(NC(=O)C5CC5)nn34)cc2)c1 [Compound 251, 3-{4-[2-(Cyclopropanecarbonyl-amino)-[1,2,4]triazolo[1,5-a]pyridin-5-yl]-benzyloxy}-benzamide]
– | 101 to 500 nM | O=C(Nc1nc2cccc(-c3ccc(CN4CCCC4)cc3)n2n1)C1CC1 [Compound 260, Cyclopropanecarboxylic acid [5-(4-pyrrolidin-1-ylmethyl-phenyl)-[1,2,4]triazolo[1,5-a]pyridin-2-yl]-amide]
– | 101 to 500 nM | CC(=O)N(C)C1CCN(Cc2ccc(-c3cccc4nc(NC(=O)C5CC5)nn34)cc2)C1 (stereo not shown) [Compound 262, Cyclopropanecarboxylic acid (5-{4-[3-(acetyl-methyl-amino)-pyrrolidin-1-ylmethyl]-phenyl}-[1,2,4]triazolo[1,5-a]pyridin-2-yl)-amide]
– | < 100 nM | N#Cc1ccc(NCc2ccc(-c3cccc4nc(NC(=O)C5CC5)nn34)cc2)c(F)c1 [Compound 258, Cyclopropanecarboxylic acid (5-{4-[(4-cyano-2-fluoro-phenylamino)-methyl]-phenyl}-[1,2,4]triazolo[1,5-a]pyridin-2-yl)-amide]
– | 101 to 500 nM | O=C(Nc1nc2cccc(-c3ccc(CNc4ccccc4)cc3)n2n1)C1CC1 [Compound 261, Cyclopropanecarboxylic acid [5-(4-phenylaminomethyl-phenyl)-[1,2,4]triazolo[1,5-a]pyridin-2-yl]-amide]
> 1000 nM | – | Cc1cc(CNc2ccc(-c3cccc4nc(NC(=O)C5CC5)nn34)cn2)nn1C [Compound 173, N-(5-(6-((1,5-dimethyl-1H-pyrazol-3-yl)methylamino)pyridin-3-yl)-[1,2,4]triazolo[1,5-a]pyridin-2-yl)cyclopropanecarboxamide]
> 1000 nM | – | O=C(Nc1nc2cccc(-c3ccc(N4CCNCC4)nc3)n2n1)C1CC1 [Compound 61, N-(5-(6-(piperazin-1-yl)pyridin-3-yl)-[1,2,4]triazolo[1,5-a]pyridin-2-yl)cyclopropanecarboxamide]
101 to 500 nM | – | CC(C)(CN1CCOCC1)NC(=O)c1ccc(-c2cccc3nc(NC(=O)C4CC4)nn23)cc1 [Compound 102, 4-(2-(cyclopropanecarboxamido)-[1,2,4]triazolo[1,5-a]pyridin-5-yl)-N-(2-methyl-1-morpholinopropan-2-yl)benzamide]
101 to 500 nM | – | Cc1ccccc1OCC1CCN(C(=O)c2ccc(-c3cccc4nc(NC(=O)C5CC5)nn34)cc2)CC1 [Compound 133]
101 to 500 nM | – | COc1cccc(C(=O)Nc2ccc(-c3cccc4nc(NC(=O)C5CC5)nn34)cc2)c1 [Compound 53, N-(4-(2-(cyclopropanecarboxamido)-[1,2,4]triazolo[1,5-a]pyridin-5-yl)phenyl)-3-methoxybenzamide]
– | 101 to 500 nM | O=C(Nc1nc2cccc(-c3ccc(CN4CCC(F)(F)C4)cc3)n2n1)C1CC1 [Compound 264, Cyclopropanecarboxylic acid {5-[4-(3,3-difluoro-pyrrolidin-1-ylmethyl)-phenyl]-[1,2,4]triazolo[1,5-a]pyridin-2-yl}-amide]
101 to 500 nM | – | COCC(C)N(Cc1ccc(F)cc1)C(=O)c1ccc(-c2cccc3nc(NC(=O)C4CC4)nn23)cc1 (stereo not shown) [Compound 151, 4-(2-(cyclopropanecarboxamido)-[1,2,4]triazolo[1,5-a]pyridin-5-yl)-N-(4-fluorobenzyl)-N-(1-methoxypropan-2-yl)benzamide]
– | 501 to 1000 nM | COc1ccc(C(N)=O)cc1NCc1ccc(-c2cccc3nc(NC(=O)C4CC4)nn23)cc1 [Compound 255, 3-{4-[2-(Cyclopropanecarbonyl-amino)-[1,2,4]triazolo[1,5-a]pyridin-5-yl]-benzylamino}-4-methoxy-benzamide]
> 1000 nM | – | O=C(Nc1nc2cccc(-c3cnc(N4CCOCC4)nc3)n2n1)C1CC1 [Compound 8, N-(5-(2-morpholinopyrimidin-5-yl)-[1,2,4]triazolo[1,5-a]pyridin-2-yl)cyclopropanecarboxamide]
